“Also recorded” adds a separate entry of the source.
Columns and labels:
3T3 L1 adipocytes = assay: Triglyceride release from 3T3 L1 adipocytes (peptide stimulation assay); assay type: cell-based, murine; settings: 4 hours, 2 assays combined
Description: • 2.1 The objective of this study was to determine the effects of a-MSH and desacetyl a-MSH on leptin and triglyceride production in murine 3T3 L1 adipocytes. • 2.2 Pre-adipocytes were seeded in 6-well plates and 2 days post confluence (Day 2) were differentiated with […] indomethacin+5 ug/mL insulin (described in previous documents). • 2.3 On Day 13 adipocytes were stimulated with 4 doses each of a-MSH and desacetyl a-MSH (or no peptide added) for 4 hours. • 2.4 Medium was removed from the wells and leptin and triglyceride levels measured. • 2.5 Intracytoplasmic lipid accumulation was measured by staining with Oil red O.
• 4.1 Medium=a-MEM+0.5% BSA (100 mL a-MEM+0.5 g BSA) • 4.2 Doses of a-MSH and da-MSH (stocks in −80° C. freezer=1 ug/ul), using MW of a-MSH. • 1 M=1665 g/L=1665 mg/mL • 1 mM=1.665 mg/mL • 1 uM=1.665 ug/mL • 1.665 ug/mL=3.3 ug/2 mL in each well • 1/10 dilution of 1 ug/ul (stock)=0.1 ug/ul. 33 ul=3.3 ug. • Prepare 1/10 dilution of freezer stock (1 ug/ul) to make 0.1 ug/ul, using a-MEM+0.5% BSA as diluent. • Make 3 serial dilutions of 1/10 to add 33 ul to each well in 6-well plate. • Doses are in triplicate wells, so require 3×33=99 ul for each dose.
• 5.1 Assay is performed on Day 14 after initiation of cell differentiation. […]

neonatal rats = assay: Body and organ weights of neonatal rats after subcutaneous injection; assay type: in vivo, rat; settings: s.c. 0.3 μg/g body weight/day; for body weight change (growth) over 14 days vs PBS: first 14 days of life
Description: Adult female Wistar rats were housed in plastic cages and kept on a 12-h dark/light cycle. Animals received tap water and rat pellets ad libitum and were mated with males of the same strain. Each litter of new-born Wistar rats was culled to 9 pups per mother.
PBS or freshly prepared peptide solutions made up freshly in PBS containing 0.1% BSA were injected subcutaneously once per day in a volume of 40 μl for 14 days. Animals were injected on day 14 and 1 h later they were euthanised using sodium pentobarbital.
Rats were weighed at birth and then every 2 days prior to injection of peptides. Body weights were recorded on day 14 before injection and again when they were euthanised. The following organs were dissected and weighed: brain, heart, kidney, liver, lung, spleen.
Liner relationships between organ weights and body weights was tested using regression analysis of the organ weights measured against final body weight on day 14. There were significant linear relationships between organ weights and body weights for the following tissues: brain, spleen, heart, kidney and liver. There was no significant regression between lung weight and body weight. For those organs where their weight was linearly correlated to body weight, treatment effects on organ weight changes were analysed using ANCOVA with body weight as the co-variate.
Differences in body weight were analysed using a General Linear Model with repeated measures. Significance was assumed at the P<0.05 level.

primary rat osteoblasts = assay: Primary rat osteoblast proliferation assay ([3H]thymidine incorporation, cell number); assay type: cell-based
Source text: Primary rat osteoblasts were isolated from 20 day fetal rat calvariae. (The use of animals for these studies was approved by the Auckland Animal Ethics Committee.) Calvariae were excised and the frontal and parietal bones, free of suture and periosteal tissue, were collected and sequentially digested using collagenase as previously described (Cornish J, Callon K E, Lin C Q X, Xiao C L, Mulvey T B, Cooper G J S, Reid I R Trifluoroacetate, a contaminant in puritied proteins, inhibits proliferation of osteoblasts and chondrocytes. Amer J Physiol Endocrinol Metab 277: E779-E783, 1999). Primary rat osteoblasts were grown in DMEM supplemented with 10% FCS, 50 U/ml penicillin and 50 μg/ml streptomycin. After 48 hour, the medium was changed to MEM. Confluence was reached within 5-6 days, at which time the cells were subcultured into 10 cm culture plates for RNA preparation or 24 well plates for proliferation assays.
Primary rat osteoblasts were subcultured into 24 well plates at a density of 5×10^4 cells/ml/well in MEM, 5% FCS for 24 hours. Cells were growth arrested in MEM, 0.1% bovine serum albumin (BSA) for 24 hour and then fresh media and experimental compounds were added for a further 24 hours. Cells were pulsed with [^3H]thymidine (0.5 μCi/well) 2 hours before the end of the experimental incubation. The experiment was terminated and both cell numbers and thymidine incorporation were assessed. Cell numbers were analysed by detaching cells from the wells by exposure to trypsin/EDTA (0.05%/0.53 mM) for approximately 5 minutes at 37° C. Counting was performed in a hemocytometer chamber. Results are expressed per well. [^3H]Thymidine incorporation was analysed by washing the cells in MEM followed by the addition of 10% trichloroacetic acid. The precipitate was washed twice with ethnol:ether (3:1) and the wells desiccated at room temperature. The residue was dissolved in 2M KOH at 55° C. for 30 minutes, neutralized with 1M HCl, and an aliquot counted for radioactivity. Results are expressed as dpm per well. Each experiment was performed at least three times using experimental groups consisting of at least six wells.
Data are presented as mean±SEM. The significance of differences between groups was determined using Student's t tests for unpaired data and a 5% significance level. The comparisons to be made in each experiment were specified a priori, so no adjustment for multiple comparisons was necessary. Where several experiments have been shown in one figure, the data are expressed as the ratio of results in treatment groups to those in the control group and the ‘P’ values shown were calculated using the data from the individual experiments, before the data were pooled.

How did the “TRIGLYCERIDE RESPONSE, MEAN” value (3T3 L1 adipocytes; 100 nM) turn out when “SYSMEHFRWGKPV [desacetyl-α-MSH, non-acetylated form of α-MSH, obtained from Bachem]” was run?
Its value is 111.4 % OF CONTROL.

And the “TRIGLYCERIDE RESPONSE, MEAN” value (3T3 L1 adipocytes; 1000 nM)?
The value was 110.0 % OF CONTROL.

What about the “brain weight vs PBS” value (neonatal rats; 14 days) of the same sequence?
Its value is “significantly decreased brain weight”.

What about the “kidney weight vs PBS” value (neonatal rats; 14 days) of the same sequence?
Its value is “no significant effect on kidney weight”.

What about the “spleen weight vs PBS” value (neonatal rats; 14 days) of the same sequence?
Its value is “significantly increased spleen weight”.

And the “body weight change (growth) over 14 days vs PBS” value (neonatal rats)?
Its value is “grew significantly slower”.

And the “body weight change (growth) over 14 days vs PBS” value (neonatal rats; listed as Desacetyl-α-MSH)?
Its value is “significantly slowed body weight change”.

And the “body weight catch up compared to PBS treated rats” value (neonatal rats; from day 12)?
Its value is “appeared to catch up on body weight from day 12”.

What about the “antagonism of α-MSH stimulated [3H] thymidine uptake” value (primary rat osteoblasts; 10^−7 M against α-MSH 10^−8 M and 10^−7 M, growth arrested primary rat osteoblasts) of the same sequence?
Its value is “inhibited two doses of α-MSH (10^−8 M and 10^−7 M) from stimulating [^3H] thymidine uptake; also recorded: antagonise α-MSH stimulated stimulation of thymidine incorporation”.

What about the osteoblast proliferation (primary rat osteoblasts; 10^−7 M and 10^−8 M, alone) of the same sequence?
Its osteoblast proliferation is “no significant effect on osteoblast proliferation in two out of three experiments”.

What about the “thymidine incorporation or cell numbers (proliferation)” value (primary rat osteoblasts; growth arrested primary rat osteoblasts, 10^−7 M, alone) of the same sequence?
Its value is “did not stimulate thymidine incorporation or cells numbers”.
